Results reported in ChEMBL document CHEMBL4265919, “Structural alterations based on naproxen scaffold: Synthesis, evaluation of antitumor activity and COX-2 inhibition, and molecular docking” (Eur J Med Chem, 2018).

What was measured:
[1] = system: Caco-2; assay: Antiproliferative activity against human Caco2 cells by MTT assay; format: functional, cell-based
[2] = system: HeLa; assay: Antiproliferative activity against human HeLa cells by MTT assay; format: functional, cell-based
[3] = system: HCT-116; assay: Antiproliferative activity against human HCT116 cells by MTT assay; format: functional, cell-based
[4] = system: MCF7; assay: Antiproliferative activity against human MCF7 cells by MTT assay; format: functional, cell-based
[5] = system: MDA-MB-231; assay: Antiproliferative activity against human MDA231 cells by MTT assay; format: functional, cell-based
[6] = target: T1, Prostaglandin G/H synthase 1 (Ovis aries, UniProt P05979); assay: Inhibition of ovine COX1 using arachidonic acid as substrate incubated for 5 mins followed by substrate addition measured after 2 mins by colorimetric based ELISA
T1 sequence (P05979 whole entry): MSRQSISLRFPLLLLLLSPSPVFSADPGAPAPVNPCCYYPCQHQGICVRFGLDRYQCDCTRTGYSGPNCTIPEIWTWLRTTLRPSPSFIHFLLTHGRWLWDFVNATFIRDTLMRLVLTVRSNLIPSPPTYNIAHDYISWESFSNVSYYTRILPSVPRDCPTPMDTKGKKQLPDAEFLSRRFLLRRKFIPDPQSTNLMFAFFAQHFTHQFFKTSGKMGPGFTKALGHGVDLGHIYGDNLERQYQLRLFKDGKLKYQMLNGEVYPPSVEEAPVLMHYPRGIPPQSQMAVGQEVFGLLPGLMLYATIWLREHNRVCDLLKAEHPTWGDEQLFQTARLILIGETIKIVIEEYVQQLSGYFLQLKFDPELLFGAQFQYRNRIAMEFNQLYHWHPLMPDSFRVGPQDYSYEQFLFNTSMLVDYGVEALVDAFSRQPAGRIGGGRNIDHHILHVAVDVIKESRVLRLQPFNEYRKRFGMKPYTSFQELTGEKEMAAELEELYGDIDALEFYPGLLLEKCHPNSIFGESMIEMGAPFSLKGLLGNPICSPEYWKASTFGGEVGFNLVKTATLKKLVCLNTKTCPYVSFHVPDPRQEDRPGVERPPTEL

IC50 [1] [µM] | IC50 [2] [µM] | IC50 [3] [µM] | IC50 [4] [µM] | IC50 [5] [µM] | IC50 [6] [µM] | SMILES
28 | 65.6 | 19.1 | 61.7 | 14.8 | > 25 | COc1ccc2cc(C(C)c3n[nH]c(=S)n3/N=C/c3ccccc3)ccc2c1 (stereo not drawn)
77.7 | 20.7 | 60.5 | 38.3 | 41.8 | > 25 | COc1ccc2cc(C(C)c3n[nH]c(=S)n3N)ccc2c1 (stereo not drawn)
81.3 | – | 67.4 | – | 49.2 | – | COc1ccc2cc(C(C)c3nnc4n3N=C(c3ccccc3)CS4)ccc2c1 (stereo not drawn)
58.2 | 78.6 | 49.8 | 79.3 | 37.2 | > 25 | COc1ccc2cc(C(C)C(=O)NN3C(=O)c4ccccc4C3=O)ccc2c1 (stereo not drawn)
> 100 | 86.4 | > 100 | 85.7 | 93.8 | – | COc1ccc2cc(C(C)c3nnc4n3NC(=O)CS4)ccc2c1 (stereo not drawn)
43.9 | 19.4 | 28.4 | 31.7 | 16.2 | > 25 | COc1ccc2cc(C(C)c3nnc(-c4ccc(C)cc4)o3)ccc2c1 (stereo not drawn)
16 | 12.1 | 8.76 | 9.26 | 8.14 | > 25 | COc1ccc2cc(C(C)c3n[nH]c(=S)n3/N=C/c3cccc(Br)c3)ccc2c1 (stereo not drawn)
13.8 | 9.03 | 5.14 | 7.74 | 4.83 | > 25 | COc1ccc2cc(C(C)c3n[nH]c(=S)n3/N=C/c3ccc(O)cc3)ccc2c1 (stereo not drawn)
> 100 | > 100 | > 100 | 91.4 | 89.4 | – | COc1ccc2cc(C(C)c3nnc(SCc4ccccc4)o3)ccc2c1 (stereo not drawn)
33.9 | 6.15 | 10.5 | 5.89 | 7.29 | > 25 | COc1ccc2cc(C(C)c3nnc(-c4ccc(O)cc4)o3)ccc2c1 (stereo not drawn)

Further lines, the compound ahead of its results:

SMILES | IC50 [1] [µM] | IC50 [2] [µM] | IC50 [3] [µM] | IC50 [4] [µM] | IC50 [5] [µM] | IC50 [6] [µM]
COc1cccc2c1C(=O)c1c(O)c3c(c(O)c1C2=O)C[C@@](O)(C(=O)CO)C[C@@H]3O[C@H]1C[C@H](N)[C@H](O)[C@H](C)O1 [DOXORUBICIN] | 26.8 | – | – | – | – | –
COc1ccc2cc(C(C)C(=O)NN3C(=O)C=CC3=O)ccc2c1 (stereo not drawn) | 39.5 | 15.1 | 22.1 | 21.9 | 11.1 | > 25
COc1ccc2cc(C(C)C(=O)NN=C3CCCCCC3)ccc2c1 (stereo not drawn) | 46.1 | 59.4 | 44.7 | 48.2 | 32.7 | > 25
COc1ccc2cc(C(C)c3nnc(SC4CCCC4)o3)ccc2c1 (stereo not drawn) | 50.9 | 48.9 | 34.3 | 47.1 | 23.2 | > 25
COc1ccc2cc(C(C)c3nnc(SC)o3)ccc2c1 (stereo not drawn) | 73.5 | 26.2 | 39.9 | 57.2 | 29.5 | > 25
COc1ccc2cc(C(C)C(=O)NN=C3CCCCC3)ccc2c1 (stereo not drawn) | 18.8 | 13 | 14.5 | 12.1 | 9.65 | > 25
COc1ccc2cc(C(C)c3nnc(-c4ccc([N+](=O)[O-])cc4)o3)ccc2c1 (stereo not drawn) | > 100 | 35.1 | 75 | 42.1 | 66.3 | > 25
CN(C)C/C=C/C(=O)Nc1cc2c(Nc3ccc(F)c(Cl)c3)ncnc2cc1O[C@H]1CCOC1 [AFATINIB] | 7.7 | 6.2 | 11.4 | 7.1 | 7.5 | –
Cc1ccc(-c2cc(C(F)(F)F)nn2-c2ccc(S(N)(=O)=O)cc2)cc1 [CELECOXIB] | 42.7 | 36.1 | 29.5 | 31.3 | 22.8 | –
COc1ccc2cc(C(C)C(=O)NN=C3CCN(C)CC3)ccc2c1 (stereo not drawn) | > 100 | 51.6 | 83.6 | 68.7 | 72 | –
COc1ccc2cc(C(C)C(=O)NN3C(=O)CCC3=O)ccc2c1 (stereo not drawn) | 63.8 | 30.4 | 56.2 | 26.7 | 52.8 | > 25
COc1ccc2cc(C(C)C(=O)NN=C3CCCC3)ccc2c1 (stereo not drawn) | > 100 | 69.1 | > 100 | 71.5 | 80.7 | –
